Data set [1] has as its system Junin virus. The experiment in a line: microbe, parasite or virus in culture. The data set is classed as cell-based. The note with it: Mammarenavirus juninense, Vero; for EC90: read-out: EC90 Junin Vero.
The subject of data set [2] is MERS-CoV. The data set is described as follows: microbe, parasite or virus in culture. Format: cell-based. Particulars: Middle East respiratory syndrome-related coronavirus, HAE, read-out: EC50 MERS (HAE).
The subject of data set [3] is SARS-CoV. The data set is described as follows: microbe, parasite or virus in culture. Format: cell-based. The note with it: Severe acute respiratory syndrome coronavirus, HAE, read-out: EC50 SARS (HAE).
A short description of data set [4]: in vitro. The note with it: human.
A short description of data set [5]: in vitro. The note with it: human. This is another data set of the same source.
Data set [6] has as its system Junin virus. The data set is described as follows: microbe, parasite or virus in culture. The data set is classed as cell-based. Particulars: Mammarenavirus juninense, HeLa; for EC50: read-out: EC50 HCS Junin HeLa; for EC90: read-out: EC90 HCS Junin HeLa.
Data set [7] deals with Lassa virus. The data set is described as follows: microbe, parasite or virus in culture. The data set is classed as cell-based. The note with it: Mammarenavirus lassaense, HeLa; for EC50: read-out: EC50 HCS Lassa HeLa; for EC90: read-out: EC90 HCS Lassa HeLa.
Data set [8] concerns MERS-CoV (Strain Jordan N3). The experiment in a line: microbe, parasite or virus in culture. The data set is classed as cell-based. Particulars: Middle East respiratory syndrome-related coronavirus, Vero, read-out: EC50 MERS-CoV Vero.
For data set [9], the system named is MERS-CoV. The data set is described as follows: microbe, parasite or virus in culture. Format: cell-based. Particulars: Middle East respiratory syndrome-related coronavirus, Calu-3 2B4, read-out: EC50 MERS (Calu-3).
Data set [10] concerns SARS-CoV. The data set is described as follows: microbe, parasite or virus in culture. Format: cell-based. Particulars: Severe acute respiratory syndrome coronavirus, Calu-3 2B4, read-out: EC50 SARS (Calu-3).
Data set [11] has as its system SARS-CoV. On the set-up: species or system mice. The note with it: mouse, in vivo.
Data set [12] has as its system MERS-CoV isolate HCoV-EMC/2012. On the set-up: species or system rhesus monkeys. The note with it: rhesus monkey, in vivo.
The conditions of data set [13]: mouse, in vivo.

Each structure is given as a SMILES string. Read-outs that look alike come from different tables or passages of the source. Some results are limits rather than exact numbers.

Consider `N#C[C@@]1(c2ccc3c(N)ncnn23)O[C@H](CO)[C@@H](O)[C@H]1O` [Compound 1, (2R,3R, 4S, 5R)-2-(4-aminopyrrolo[1,2-f][1,2,4]triazin-7-yl)-3,4-dihydroxy-5-(hydroxymethyl)tetrahydrofuran-2-carbonitrile], for which the EC90 in data set [1] is over 47000 nM. In addition, the EC50 in [2] is 460 nM; in data set [3], 220 nM. The CC50 in [4] and in [5] was over 100000 nM in each case.
For the molecule `CCC(CC)COC(=O)[C@H](C)NP(=O)(OC[C@H]1O[C@@](C#N)(c2ccc3c(N)ncnn23)[C@H](O)[C@@H]1O)Oc1ccccc1` (stereo partly drawn) [Compound 9, (2S)-2-ethylbutyl 2-((((2R,3S,4R,5R)-5-(4-aminopyrrolo[1,2-f][1,2,4]triazin-7-yl)-5-cyano-3,4-dihydroxytetrahydrofuran-2-yl)methoxy)(phenoxy)phosphorylamino)propanoate], the EC50 was over 47000 nM in [1] (read-out: EC50 Junin Vero), 490 nM in data set [6], 2000 nM in data set [7] and 460 nM in data set [8]. The EC90 in data set [1] was over 47000 nM; in data set [6] it was 1250 nM; in data set [7], 4210 nM.
`CCC(CC)COC(=O)[C@H](C)N[P@](=O)(OC[C@H]1O[C@@](C#N)(c2ccc3c(N)ncnn23)[C@H](O)[C@@H]1O)Oc1ccccc1` [Compound 32, (S)-2-ethylbutyl 2-(((S)-(((2R,3S,4R,5R)-5-(4-aminopyrrolo[2,1-f][1,2,4]triazin-7-yl)-5-cyano-3,4-dihydroxytetrahydrofuran-2-yl)methoxy)(phenoxy)phosphoryl)amino)propanoate]: in data set [6], the EC50 amounted to 470 nM and the EC90 was 1260 nM. For the same molecule, in data set [7], the EC50 was found to be 1650 nM and the EC90 came out at 3310 nM. In [8], the EC50 was 580 nM. The EC50 in data set [2] worked out at 74 nM. Moreover, the EC50 in [3] stood at 69 nM. Further, the EC50 in [9] is 30 nM. Also, the EC50 in data set [10] turned out to be 10 nM. Moreover, in data set [11], the “Changes in body weight post infection” value is recorded as “no evidence of weight loss”; the “Expiration Time and End Expiratory Pause (whole body plethysmography)” value is listed as “reduced”; the “Infectious virus in lung tissue by plaque assay” value was “significantly decreased”; the “Penh values (whole body plethysmography)” value is on record as “lower compared to vehicle-treated animals”. Besides, in data set [12], the Respiration rates result was “tended to be higher at Day 6 in vehicle-treated animals”; the “Viral RNA in the liver, spleen, kidney and bladder tissue” value is recorded as “below the limit of detection”; the “Viral RNA in the mediastinal lymph node” value is “detected in all animals”; the “Viral RNA in the respiratory tract” value is “significantly reduced”. Besides, in [12], the “Viral load in nose swabs and throat swabs” value is “no difference in viral load”. Further, in [12] (iv, 10 mg/kg), the “Body weight and body temperature during the course of the infection” value is “did not change appreciably”; the Cumulative clinical scores entry is recorded as “notably higher in vehicle-treated animals”; the Disease symptoms result is on record as “less pronounced”. Also, in [13], the Plasma stability result is listed as “improved the plasma stability”. In data set [4], this molecule had a CC50 of over 10000 nM. Moreover, in data set [5], the CC50 is over 10000 nM.

For orientation: EC90 means the concentration needed for an effect of 90%. For orientation: EC50 means the concentration at which the effect is half-maximal.

For the origin of these results see US11007208B2 (priority 2015, dated 2021).
